This note sets out measurements from patent US20090218708A1, “Process for preparing concentrated aqueous micellar solutions” (Roche Palo Alto LLC, priority 2008, published 2009).

Holding throughout (assay type): physicochemical
Data set [1] is described as follows: Solubility of compound II in solvents. How it is done:
Compound II (2 g) was slowly dispersed in 70% IPA (20 mL) and water (14 mL) was added. […] The IPA was distilled using rotary evaporator to achieve an aqueous solution containing ca. […] of II. The concentrated aqueous solution was spray dried using a Buchi B-290 spray drier and the operating parameters were adjusted as follows: […]

A short description of data set [2]: Hygroscopicity: water absorbed in controlled relative humidity chamber (weight gain). Conditions: 4 weeks. On the procedure:
(§1) A small amount of the solid (about 10 mg from example 1) was weighed into a weighing bottle and placed in a chamber with controlled relative humidity for 4 weeks and the percentage of water absorbed was calculated form the weight gain. The sample was also assayed by HPLC against an external standard on a Waters 2690 HPLC at 276 nm. The data was processed using Waters Millennium software version 3.2. The thermal stability also was determined at 60° C. and at 40° C./75% relative humidity. The purity of the sample was determined by assaying weighed aliquots by HPLC against an external standard.

A short description of data set [3]: Stability study of micellar solid from spray drying of I (HPLC area %). On the procedure:
as §1

The solubility is how much of the substance goes into solution per volume.

As for `CCC(=O)[N-]S(=O)(=O)c1ccc(NC(=O)Cc2ccc(Br)c(Oc3cc(Cl)cc(C#N)c3)c2F)c(Cl)c1.[Na+]` [II], the solubility in data set [1] (aqueous with cosolvent or surfactant or cyclodextrin, in 70% IPA/H2O) was approximately 47000 µg/mL; in data set [1] (in water) it was approximately 4000 µg/mL; in data set [1] (organic solvent or mixture, in IPA) it was approximately 80 µg/mL.

Regarding `O=C(O)CCc1cc(C(=O)c2ccc(OC3CCCC3)cc2O)ccc1OCc1ccc2c(O)noc2c1` [I], the hygroscopicity entry in data set [2] was “not hygroscopic”. Also, the Area % came to 99.88% in data set [3] (25° C./60% RH (closed), 4 weeks); 99.88% in data set [3] (25° C./60% RH (closed), To); 99.91% in data set [3] (40° C./75% RH (closed), 4 weeks); 99.88% in data set [3] (40° C./75% RH (closed), To); 99.26% in data set [3] (40° C./75% RH (open), 5 weeks); 99.81% in data set [3] (40° C./75% RH (open), To). The Area % in data set [3] (60° C. (closed), 5 weeks) amounted to 99.72%; in data set [3] (60° C. (closed), To), 99.81%. Besides, the thermal stability entry in data set [3] (at 40 and 60° C. over the duration of the assay) is reported as “thermally stable”.
